The values that follow come from ChEMBL document CHEMBL5154827, “Discovery of S-217622, a Noncovalent Oral SARS-CoV-2 3CL Protease Inhibitor Clinical Candidate for Treating COVID-19” (J Med Chem, 2022).

SMILES strings stand for the structures.

As a reminder, the inhibition is the drop in the measured response relative to a control, in per cent. The term IC50 denotes the concentration that gives 50% inhibition. For orientation: EC50 means the concentration that produces a half-maximal response.

The nature of data set [1]: Elimination half life in Sprague-Dawley rat at 0.5 micromol/mL/kg, iv measured for 3 to 360 mins by LC-MS/MS analysis. Format: ADME, organism-based. The following applies: in vivo, time 3-360 min, dose 0.5 µmol/kg, read-out: LambdaZ (converted).
Data set [2] deals with T1, Chymotrypsin (Homo sapiens, UniProt Q99895+P17538+P40313+Q6GPI1). Put plainly: Inhibition of human pancreas chymotrypsin at 100 uM using Suc-Ala-Ala-Pro-Phe-AMC as substrate preincubated for 15 mins incubated followed by addition of substrate measured after 60 mins by measuring amount of AMC formed by spectrofluorimetric method. As to conditions: time 75.0 min. Format: protein assay.

Data set [3] deals with T1, Chymotrypsin. Put plainly: Inhibition of human pancreas chymotrypsin using Suc-Ala-Ala-Pro-Phe-AMC as substrate preincubated for 15 mins incubated followed by addition of substrate measured after 60 mins by measuring amount of AMC formed by spectrofluorimetric method. Format: protein assay.
The next data set has as its system NIH3T3. Put plainly: Phototoxicity in BALB/c mouse 3T3 fibroblast incubated for 1 hr by measuring neutral-red extraction from cells. Type of data set: toxicity, cell-based. The following applies: nih3t3, 1 h.
Data set [4] addresses Human immunodeficiency virus type 1 protease (Human immunodeficiency virus 1) (UniProt Q72874). Put plainly: Inhibition of HIV-1 protease at 100 uM.
Data set [5] in a line: Antiviral activity against HCoV-OC43 infected in MRC5 cells assessed as inhibition of viral cytopathic effect measured after 42 hrs by real-time PCR method. Format: functional, cell-based, Human coronavirus OC43. The following applies: Betacoronavirus 1, OC43, MRC5, 42 h. On the technique in general: Damage to the host cells serves as the signal in cytopathic effect assays.

Consider `CNC(=O)Cn1c(=O)[nH]/c(=N\c2cc3cn(C)nc3cc2Cl)n(Cc2cc(F)c(F)c(F)c2)c1=O`, for which, in data set [1], the half-life was 78 min.

Turning to `CNC(=O)Cn1c(=O)[nH]/c(=N\c2ccc(OC(F)F)cc2C)n(Cc2cc(F)c(F)c(F)c2)c1=O`, in data set [1], the half-life was 126 min.

Turning to `Cn1cnc(Cn2c(=O)[nH]/c(=N\c3cc4cn(C)nc4cc3Cl)n(Cc3cc(F)c(F)cc3F)c2=O)n1`, the inhibition (on Chymotrypsin [2]; in data set [4]) was less than 50% throughout. The IC50 against Chymotrypsin [3] was greater than 100 µM. For the same compound, in the data set with NIH3T3, the Activity entry is listed as “Non-Toxic”. Besides, in data set [5], the EC50 was 74 nM.
